Assay results taken from patent US20060111420A1, “Sorbicillactone-a derivatives for the treatment of tumour and viral diseases” (Johannes Gutenberg-Universitat Mainz, priority 2002, published 2006).

Key:
[1] = system: L5178y mouse lymphoma cellular system (ATCC CRL 1722); assay: Antitumoural activity, L5178y cell proliferation (XTT); type: cell-based; settings: for Optical density (595 nm): 72 h, XTT, control 0.38; for cellular proliferation after 72 h: at >0.1 μg/ml
[2] = biological target: phospholipase A2 [from bee's poison] (Apis mellifera, UniProt P00630); assay: biochemical; settings: read-out: inhibition of phospholipase A2
mice-ear oedema = assay: TPA-induced mice-ear oedema; type: in vivo, mice (Swiss); settings: 20 μg topically 10 min after TPA (10 μg); n=5; P<=0.01
[3] = system: human foreskin-fibroblasts; assay: Proliferation of human foreskin-fibroblasts; type: cell-based; settings: 30 μg/ml; cell count microscopically

phospholipase A2 [from bee's poison], sequence (P00630 34-167 limits assumed): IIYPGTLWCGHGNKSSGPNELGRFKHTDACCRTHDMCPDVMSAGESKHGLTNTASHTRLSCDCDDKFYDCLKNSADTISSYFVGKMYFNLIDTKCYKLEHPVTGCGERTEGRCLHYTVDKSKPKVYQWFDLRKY

SMILES	Optical density (595 nm) ([1]; 0.1 μg/ml)	Optical density (595 nm) ([1]; 0.3 μg/ml)	Optical density (595 nm) ([1]; 1.0 μg/ml)	Optical density (595 nm) ([1]; 3.0 μg/ml)	cellular proliferation after 72 h [1]	inhibition at 2 µg/mL [2]	inhibition of the formation of the oedema (mice-ear oedema)	effect on the proliferation [3]	mortality (NMRI-mice; 20 mg/kg per day i.p. for five days)	sub-acute toxicity (NMRI-mice; male, NMRI, mouse, in vivo, ip, 5 days)
C/C=C/C=C/C(O)=C1/C(=O)C(C)=C(O)C2(C)OC(=O)C(C)(NC(=O)C3NN=CC3C(=O)OC)C12 (stereo not drawn) [SOA-D1]	0.29	0.22	0.05	0.03	drastically reduced	–	–	–	–	–
C/C=C/C=C/C(O)=C1/C(=O)C(C)=C(O)[C@@]2(C)OC(=O)[C@@](C)(NC(=O)/C=C/C(=O)O)[C@@H]12 [Sorbicillacton A, sorbicillacton A]	0.24	0.19	0.07	0.06	drastically reduced	~80%	39.2±5.3%	no effect on the proliferation	None of the test animals dies	> 20 mg/kg
